One series deals with NIH 3T3 fibroblasts. Description: Hydrophobic and polar domain transfection analysis of PolyGum derivatives (luciferase specific activity, pGL3I+). The settings on record: for transfection effectiveness ranking among methoxy PolyGum derivatives: 1 microgram plasmid DNA pGL3I+, 48 hours (FIG. 9). Type of series: cell-based, Murine. The protocol: Transfection activity was measured using the luciferase assay. Luciferase assays were performed with a luciferase assay kit (purchased from Analytical Luminescence Laboratories) using a Monolight 2010 luminometer (Analytical Luminescence Laboratories, San Diego, Calif.) according to the manufacturer's instructions. The media was removed from the transfected cells via aspiration. 0.5 mL of luciferase buffer/well was added, and the cells were placed on ice for 15 min. Luciferase light emissions from 100 μl of the lysate were measured using the luminometer.
Shown in FIG. 9 are hydrophobic and polar domain transfection results for various synthesized PolyGum derivatives. In the tests, 1.0×10^5 NIH 3T3 fibroblasts were plated 24 hours prior to transfection. Cell lysates were obtained 48 hours after transfection and assayed for luciferase specific activity. The data presented in FIG. 9 corresponds to the ability of the subject cationic lipid to mediated delivery of 1 microgram of plasmid DNA (pGL3I+).

In another series the test system is transfected cells. Description: Alamar Blue toxicity assay. In kind it is cell-based. The protocol:
Usually, 24 well tissue culture plates containing 5.0×10^4 cells/well rapidly dividing adherent NIH 3T3 cells per well were transfected. The growth media was removed via aspiration and the cells were washed once with 0.5 mL PBS/well. A 200 μl aliquot of liposome-DNAcomplex was added to each well and the cells were allowed to incubate for 4 hr. at 37° C. If desired, at this time, 1 mL of DMEM+10% fetal calf serum/well was added and the cells were allowed to incubate for an additional 48 hr, after which assays of toxicity and/or efficacy were performed. Equivalent procedures were utilized for the DU-145 cells.
Alamar blue (Alamar Biosciences, Sacramento, Calif.), was diluted in cell culture media to 10%, added to cells, and incubated for up to two hours. Reduced dye was quantitated using a CytoFluor 2300 fluorescence plate reader with a 530 nm excitation filter and a 590 nm emission filter. Values expressed represent fluorescence less background. The same transfected cells can subsequently be assayed for reporter protein activity after Alamar Blue analysis.
In general terms: Alamar Blue is a resazurin reagent that responds to reducing activity.

The test system of another series is NIH 3T3 cells. Description: Luciferase transfection assay (pCMVL plasmid), NIH 3T3 cells. Type of series: cell-based, Murine. The protocol: NIH 3T3 cells were grown in Dulbecco's modified Eagles medium (DMEM)+10% fetal calf serum. The DNA plasmid pCMVL was prepared by standard methods and used as a 369 ng/μl solution in TE, pH=7.6. The luciferase reporter plasmid pCMVL was prepared at UC Davis, and consists of the P. pyralis luciferase cDNA subcloned into the plasmid pRc/CMV (Invitrogen).
Multilamellar and small sonicated vesicles were prepared by addition of the cationic lipid DOHME together with DOPE, both as solutions in chloroform, to a 5 mL sample vial. The chloroform was removed via rotary evaporation with the water bath set at a constant temperature of 37° C. The resulting thin lipid films were placed under high vacuum overnight to insure that all traces of solvent had been removed. The lipid mixture was resuspended using distilled water ([…] total lipid/1 mL water) and vortex mixed to give a suspension of MLVs. This cloudy suspension was sonicated for fifteen minutes using a bath sonicator until a clear suspension containing SVs was obtained.
Sequential addition of DMEM (with or without 10% fetal calf serum), pCMVL plasmid (for n=4, 4 μg), and liposome formulation into a 2 mL Eppendorf tube gave a total volume of 800 μl. The relative amount of liposome:pCMVL plasmid used was determined by the desired cationic lipid:DNA phosphate charge ratio. The mixing of these substances was followed by thorough vortexing.
Usually, 24 well tissue culture plates containing 5.0×10^4 cells/well rapidly dividing adherent NIH 3T3 cells per well were transfected. The growth media was removed via aspiration and the cells were washed once with 0.5 mL PBS/well. […]
Transfection activity was measured using the luciferase assay. Luciferase assays were performed with a luciferase assay kit (purchased from Analytical Luminescence Laboratories) using a Monolight 2010 luminometer (Analytical Luminescence Laboratories, San Diego, Calif.) according to the manufacturer's instructions. […] Luciferase light emissions from 100 μl of the lysate were measured using the luminometer.

In the case of `CCCCCCCCCCCCCC(=O)OC(C[N+](C)(C)CCOC)C(C[N+](C)(C)CCOC)OC(=O)CCCCCCCCCCCCC` (centres unmarked) [DM-PG-Me], the “transfection efficiency, methoxy versus non-methoxy form” value in the series on NIH 3T3 fibroblasts (DM-PG-Me versus DM-PG-OH (FIG. 9)) was “more efficient in transfection than the non-methoxy form”.
Take `CCCCCCCCCCCC(=O)OC(C[N+](C)(C)CCOC)C(C[N+](C)(C)CCOC)OC(=O)CCCCCCCCCCC` (racemic) [DL-PG-Me]: in the series on NIH 3T3 fibroblasts, the “transfection effectiveness ranking among methoxy PolyGum derivatives” value was “least effective in transfection”.
As for `CCCCCCCCCCCCCCCC(=O)OC(C[N+](C)(C)CCOC)C(C[N+](C)(C)CCOC)OC(=O)CCCCCCCCCCCCCCC` (centres unmarked) [DP-PG-Me], in the series on NIH 3T3 fibroblasts, the “transfection effectiveness ranking among methoxy PolyGum derivatives” value was “most effective in transfection”.
As to `CCCCCCCC/C=C\CCCCCCCC(=O)OC(C[N+](C)(C)CCO)C(C[N+](C)(C)CCO)OC(=O)CCCCCCC/C=C\CCCCCCCC.[I-].[I-]` (centres unmarked) [PolyGum, N,N,N',N'-tetramethyl-N,N'-bis(2-hydroxyethyl)-2,3-di(oleoyloxy)-1,4-butanediaminium iodide], the “toxicity versus LIPOFECTIN and several other amine containing vesicles” value with transfected cells (PolyGum MLV formulation) and in the series on transfected cells (PolyGum SV formulation) was “less toxicity” throughout. In addition, the “effect of serum on PolyGum (MLV) mediated transfection” value with NIH 3T3 cells (MLV, serum-free versus 10% calf serum (FIG. 3)) is listed as “greatly increased transfection is found with serum-free conditions than in the presence of 10% calf serum”. Also, the “efficiency of transfection as mole ratio of DOPE to PolyGum is increased” value in the series with NIH 3T3 cells (SV, serum-free (FIG. 5)) was “the efficiency of transfection is lowered in a generally linear fashion”. Besides, the “effect of serum on PolyGum mediated transfection under other transfection conditions” value with NIH 3T3 cells (other transfection conditions, with serum) is recorded as “little change is noted with serum transfection”.

The values are drawn from patent US5892071A, “Cationic transport reagents” (The Reagents of The University of California, priority 1995, dated 1999).
